Results as given in ChEMBL document CHEMBL1128988, “The antiinfluenza activity of pyrrolo[2,3-d]pyrimidines” (Bioorg Med Chem Lett, 1996).
pIC50: −log10 of the molar value.

Legend:
Influenza A virus = test: In vitro antiinfluenza activity against influenza virus A strain; assay type: functional, organism-based
Influenza B virus = test: In vitro antiinfluenza activity against influenza virus B strain; assay type: functional, organism-based
[1] = Lethal dose against mice upon intraperitoneal administration; assay type: toxicity; details: mouse, in vivo, ip
[2] = Lethal dose against mice upon oral administration; assay type: toxicity; details: mouse, in vivo

SMILES	pIC50 (Influenza A virus)	pIC50 (Influenza B virus)	LD50 [1]	LD50 [2]
Cc1nc(NCCc2cccc(N3CCCC3)c2)c2cc[nH]c2n1	4.62	–	–	–
Cc1nc(NCc2cccc(N3CCCC3)c2)c2cc[nH]c2n1	5.32	5.19	–	–
Cc1nc(NCCc2cccc(N3CCCCC3)c2)c2cc[nH]c2n1	4.54	–	–	–
Cc1nc2nccc-2c(NCCc2cccc(N(C)C)c2)[nH]1	4.26	–	–	–
Cc1nc(NCc2cccc(N3CCCCC3)c2)c2cc[nH]c2n1	5.64	5.29	> 500 mg/kg	> 500 mg/kg
Cc1nc2nccc-2c(NCc2cccc(N(C)C)c2)[nH]1	4.74	> 4.00	–	–
Cc1nc(NCCc2ccccc2)c2cc[nH]c2n1	4.42	–	–	–
NC12CC3CC(CC(C3)C1)C2 [AMANTADINE]	5.90	–	–	–
Cc1nc(NCc2ccccc2)c2cc[nH]c2n1 [ROLODINE]	< 4.00	–	–	–
